Results on 41 molecules are retold here after patent US20170226121A1, “MODULATORS OF VIRUS ASSEMBLY AS ANTIVIRAL AGENTS” (Indiana University Research and Technology Corporation, priority 2011, published 2017).

The test system of series [1] is HBV production in HepAD38 (AD38) cells. Kind of series: Antiviral activity, inducible HBV expression system, AD38 cells. It counts as cell-based, hepatitis B virus. As to conditions: for EC90: suppression of HBV production by 90%.
Experimental: Antiviral activity was measured using an inducible HBV expression system, AD38 cells. […] Initial experiments tested the activity of 10 μM HAP (percentage viral assembly at 24 hour). For active molecules, effective concentrations were determined for suppression of HBV production by 50% and by 90%; this value is reported in μM.
The next series can be described thus: in vitro. To be noted: human. The method, then: (§1) Antiviral activity was measured using an inducible HBV expression system, AD38 cells. (Ladner, S. K. et al., Antimicrob Agents Chemother 41, 1715-20 (1997)). Initial experiments tested the activity of 10 μM HAP (percentage viral assembly at 24 hour). For active molecules, effective concentrations were determined for suppression of HBV production by 50% and by 90%; this value is reported in μM. Compound toxicity was tested in the parent cell line, HepG2. […] All of these experiments were performed blind, in the laboratory of Raymond Schinazi (Emory University).

For another series, the system named is HepG2. Kind of series: in vitro. The method, then: as §1
Series [2] concerns the target labeled HBV core protein dimer, Cp150Bo (Hepatitis B virus genotype D subtype adw, UniProt P03147, C107A/C48A/C61A/R150C). Kind of series: Fluorescence quenching assay of HBV assembly. As to conditions: single time point 24 hr after assembly initiated with NaCl, about 30±15% assembly without stimulation. It counts as biochemical.
[3] abbreviates: suppression of HBV production by 50%, read-out: HepAD38 EC50.
Where [4] appears, read: value in parentheses in CC50 cell.

As usually defined, the inhibition is the share of the control response that was lost under treatment. The term EC50 denotes the concentration at which the effect is half-maximal. In general, EC90 refers to the concentration needed for an effect of 90%. High values mean a need for much substance, low ones an effect from little substance. One may read the % Inhibition as the drop in the measured response relative to a control, in per cent. Higher therefore signals a strong effect.

Values joined by “and” are separate entries in the source; they are usually repeats but may differ in a detail not shown here. Equal entries are not always repeated. Where two headings read alike, the source gives them in different places. Bounds are passed on as bounds.

labeled HBV core protein dimer, Cp150Bo, sequence (P03147 1-150 C48A/C61A/C107A/R150C): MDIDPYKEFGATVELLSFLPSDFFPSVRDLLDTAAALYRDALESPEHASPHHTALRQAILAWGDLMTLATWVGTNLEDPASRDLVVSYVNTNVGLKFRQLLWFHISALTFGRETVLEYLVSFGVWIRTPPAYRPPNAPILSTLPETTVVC

In turn, `Nc1ccn([C@@H]2CS[C@H](CO)O2)c(=O)n1` [Compound 3TC, lamivudine, reference compound] yielded an inhibition at 10 µM in series [1] (Hepatitis B virus, HePAD38, compound at 10 μM) of 98.6%. The EC50 in series [1] (Hepatitis B virus, HePAD38, suppression of HBV production by 50%, read-out: HepAD38 EC50) was 0.06 µM. Also, the 90% effect level in series [1] (Hepatitis B virus, HePAD38) (EC90) was put at 0.2 µM. Further, the Δ-Ct-HBV in series [1] (compound at 10 μM) is 6.17. In the series “in vitro”, this molecule returned a CC50 of over 100 µM. Besides, in the series on HepG2, the “(YI) ratio of CC50/EC50, therapeutic index” value was over 1000. Molecule `C#CCOCC1(COCC#C)COC2(CCN(CC3=C(C(=O)OC)C(c4ccc(F)cc4Cl)N=C(c4ccccn4)N3)CC2)OC1` (stereo not shown) [Compound B67] yielded an Assembly in series [2] of 84%. Same read-out and setting: the figure for `COC(=O)C1=C(CNCCOCCOCCN=[N+]=[N-])NC(c2ccccn2)=NC1c1ccc(F)cc1Cl` (stereo not shown) [Compound B68] is 49%; for `COC(=O)C1=C(CN2CCC3=NN(C)C(=O)C3C2)NC(c2ccccn2)=NC1c1ccc(F)cc1Cl` (stereo not shown) [Compound B69] it is 54%.

Turning to `C#CCNC(=O)CCCC(=O)N1CCN(CC2=C(C(=O)OC)C(c3ccc(F)cc3Cl)N=C(c3ccccn3)N2)CC1` (stereo not shown) [Compound B71], the Assembly in series [2] is on record as 133%.

As for `COC(=O)C1=C(CN2CCN(CCOCCN=[N+]=[N-])CC2)NC(c2ccccn2)=NC1c1ccc(F)cc1Cl` (stereo not shown) [Compound B72], in series [2], the Assembly is 29%. Still for that read-out and setting: the figure for `COC(=O)C1=C(CN2CCN(CCOCCOCCN=[N+]=[N-])CC2)NC(c2ccccn2)=NC1c1ccc(F)cc1Cl` (stereo not shown) [Compound B74] is 21%. The same measure, in the same setting: for `C#CCCCCC(=O)N1CCN(CC2=C(C(=O)OC)C(c3ccc(F)cc3Cl)N=C(c3ccccn3)N2)CC1` (stereo not shown) [Compound B75] the value was 134%; for `COC(=O)C1=C(CN2CCOCC2)NC(c2ccncc2)=NC1c1ccc(F)cc1Cl` (stereo not shown) [Compound B76], 36%; for `COC(=O)C1=C(C)NC(=S)NC1c1ccc(F)cc1Cl` (stereo not shown) [Compound B77], 15%. The same measure, in the same setting: the figure for `COC(=O)C1=C(C)NC(c2ccncc2)=NC1c1ccc(F)cc1Cl` (stereo not shown) [Compound B-1] is 78%; for `CC1=C(C(=O)OCCN=[N+]=[N-])C(c2ccc(F)cc2Cl)N=C(c2ccncc2)N1` (stereo not shown) [Compound B-2] it is 51%; for `C#CCNC(=O)C1=C(C)NC(c2ccncc2)=NC1c1ccc(F)cc1Cl` (stereo not shown) [Compound B-3] it is 48%.

In the case of `COC(=O)C1=C(C)NC(c2nc3ccc(OC)cc3s2)=NC1c1ccc(F)cc1Cl` (stereo not shown) [Compound B-4], the Assembly in series [2] turned out to be 56%. Same read-out and setting: the figure for `CC1=C(C(=O)OCCC2CCC(CNS(=O)(=O)c3cccc4c(N(C)C)cccc34)C2)C(c2ccc(F)cc2Cl)N=C(c2ccncc2)N1` (stereo not shown) [Compound B-5] is 54%; for `COC(=O)C1=C(C)NC(c2ccccn2)=NC1c1ccc(F)cc1Cl` (stereo not shown) [Compound B-6] it is 95%; for `COC(=O)C1=C(C)NC(c2ccccc2)=NC1c1ccc(F)cc1Cl` (stereo not shown) [Compound B-7] it is 96%. The same measure, in the same setting: the figure for `C#CCOC(=O)C1=C(C)NC(c2ccccn2)=NC1c1ccc(F)cc1Cl` (stereo not shown) [Compound B-12] is 83%; for `CC1=C(C(=O)NCc2cn(CCN3C(=O)c4ccccc4C3=O)nn2)C(c2ccc(F)cc2Cl)N=C(c2ccncc2)N1` (stereo not shown) [Compound B-13] it is 55%; for `C#CCNC(=O)c1ccc(C2=NC(c3ccc(F)cc3Cl)C(C(=O)OC)=C(C)N2)nc1` (stereo not shown) [Compound B-15] it is 48%. Same read-out and setting: the figure for `COC(=O)C1=C(C)NC(c2ccc(Br)cn2)=NC1c1ccc(F)cc1Cl` (stereo not shown) [Compound B-17] is 87%; for `COC(=O)C1=C(C)NC(c2ccccn2)=NC1c1ccc(F)cc1Br` (stereo not shown) [Compound B-18] it is 93%; for `CCOC(=O)C1=C(c2ccccc2)NC(c2ccccn2)=NC1c1ccc(F)cc1Cl` (stereo not shown) [Compound B-22] it is 77%.

As for `CCOC(=O)C1=C(c2ccccn2)NC(c2ccccn2)=NC1c1ccc(F)cc1Cl` (stereo not shown) [Compound B-23], in series [2], the Assembly is 47%. The same measure, in the same setting: for `COC(=O)C1=C(C(C)C)NC(c2ccccn2)=NC1c1ccc(F)cc1Cl` (stereo not shown) [Compound B-24] the value was 70%; for `COC(=O)C1=C(CCl)NC(c2ccccn2)=NC1c1ccc(F)cc1Cl` (stereo not shown) [Compound B-25], 54%. `C#CCNCC1=C(C(=O)OC)C(c2ccc(F)cc2Cl)N=C(c2ccccn2)N1` (stereo not shown) [Compound B-34]: the Assembly in series [2] is recorded as 65%. On the same count and under the same terms, for `COC(=O)C1=C(CN2CCCC2)NC(c2ccccn2)=NC1c1ccc(F)cc1Cl` (stereo not shown) [Compound B-35] the value was 87%; for `COC(=O)C1=C(CN2CCNCC2)NC(c2ccccn2)=NC1c1ccc(F)cc1Cl` (stereo not shown) [Compound B-36], 92%. In series [2], `COC(=O)C1=C(CN2CCN(Cc3ccc(Br)cc3)CC2)NC(c2ccccn2)=NC1c1ccc(F)cc1Cl` (stereo not shown) [Compound B-54] registered an Assembly of 21%. Turning to `COC(=O)C1=C(CN2CCN(Cc3ccccn3)CC2)NC(c2ccccn2)=NC1c1ccc(F)cc1Cl` (stereo not shown) [Compound B-55], the Assembly in series [2] is on record as 60%.

With `COC(=O)C1=C(CN2CCN(CC3CCCCC3)CC2)NC(c2ccccn2)=NC1c1ccc(F)cc1Cl` (stereo not shown) [Compound B-56], the Assembly in series [2] is listed as 15%. On the same count and under the same terms, the figure for `CCOC(=O)C1=C(CNC23CC4CC(CC(C4)C2)C3)NC(c2ccccn2)=NC1c1ccc(F)cc1Cl` (stereo not shown) [Compound B-57] is 49%; for `CCOC(=O)C1=C(CNCC23CC4CC(CC(C4)C2)C3)NC(c2ccccn2)=NC1c1ccc(F)cc1Cl` (stereo not shown) [Compound B-58] it is 42%; for `C#CC(O)(C#C)C1CCN(CC2=C(C(=O)OC)C(c3ccc(F)cc3Cl)N=C(c3ccccn3)N2)CC1` (stereo not shown) [Compound B-59] it is 57%. In series [2], `COC(=O)C1=C(CN2CCCCC2)NC(c2ccccn2)=NC1c1ccc(F)cc1Cl` (stereo not shown) [Compound B-60] yielded an Assembly of 60%. As to `COC(=O)C1=C(CN2CCOCC2)NC(c2ccccn2)=NC1c1ccc(F)cc1Cl` (stereo not shown) [Compound B-061], the concentration giving a half-maximal response (EC50) in series [1] (given in place of % inhibition at 10 μM, read-out: EC50 (printed in % Inhibition column)) turned out to be 0.55 µM; in series [1] (setting [3]) it was 0.49 µM. This molecule also gave an EC90 in series [1] of 1 µM. In the series on HepG2, this molecule returned a CC50 of over 100 µM. Besides, the “(YI) ratio of CC50/EC50, therapeutic index” value in the series with HepG2 (setting [4]) was over 200. The Assembly was 99% in series [2] (listed as B61); 51% and 80% in series [2] (listed as B-61). In the case of `COC(=O)C1=C(CN2CCN(C(=O)CCCC(=O)NCCCN=[N+]=[N-])CC2)NC(c2ccccn2)=NC1c1ccc(F)cc1Cl` (stereo not shown) [Compound B-070], in series [1] (compound at 10 μM), the “% Inhibition” value is 99.88% and the Δ-Ct-HBV is on record as 9.77. In addition, in series [1] (setting [3]), the EC50 was found to be 2.3 µM. The molecule also had an EC90 in series [1] of 5.9 µM. In the series on HepG2, the CC50 is 8.4 µM. Also, the “(YI) ratio of CC50/EC50, therapeutic index” value in the series with HepG2 (setting [4]) is listed as 3.7. In series [2], this molecule registered an Assembly of 123%. Regarding `C#CCCCCN1CCN(CC2=C(C(=O)OC)C(c3ccc(F)cc3Cl)N=C(c3ccccn3)N2)CC1` (stereo not shown) [Compound B-073], in series [1] (compound at 10 μM), the “% Inhibition” value is 64.44% and the Δ-Ct-HBV was found to be 1.5. For the same molecule, in series [1] (setting [3]), the half-maximal effective concentration (EC50) stood at 7.6 µM. The same molecule yielded an EC90 in series [1] of over 10 µM. The CC50 in the series with HepG2 came out at 3.7 µM. For the same molecule, the “(YI) ratio of CC50/EC50, therapeutic index” value in the series with HepG2 (setting [4]) was 0.5. The Assembly in series [2] amounted to 69%. As for `COC(=O)C1=C(CN2CCNC(=O)CC2)NC(c2ccccn2)=NC1c1ccc(F)cc1Cl` (stereo not shown) [Compound B-120], in series [1] (compound at 10 μM), the “% Inhibition” value is recorded as 99.87% and the Δ-Ct-HBV was 9.65. For the same molecule, the EC50 in series [1] (setting [3]) came to 0.3 µM. In series [1], the EC90 is 0.9 µM. Also, in the series with HepG2, the CC50 amounted to 32 µM. Besides, the “(YI) ratio of CC50/EC50, therapeutic index” value in the series on HepG2 (setting [4]) stood at 99. This molecule also had an Assembly in series [2] of 96%. With `COC(=O)C1=C(CCl)NC(c2ccccn2)=NC1c1ccc(F)cc1Cl` (stereo not shown) [HAP2, reference compound], the Assembly in series [2] was 99%.
